The test system of experiment [1] is Arabidopsis thaliana seed. Nature of the experiment: Seed germination assay for testing Examples 29-46. The experiment is classed as in vivo. Set-up: key: + + + +: The other derivatives were scored by potency relative to S-ABA.; (S)-ABA potency = + + +.; + +: The other derivatives were scored by potency relative to S-ABA.; ++: The other derivatives were scored by potency relative to S-ABA.; +: The other derivatives were scored by potency relative to S-ABA.; −− = no effect. The conditions noted are these: 0.16-40 μM in 6-well plates, 4 days after vernalization, compared with (S)-ABA. The protocol: (§1) Seed Germination Assay for Testing Examples 29-46 To determine the germination inhibition potency of the (±)-ABA derivatives, germination assays were performed with the model plant Arabidopsis thaliana. Arabidopsis seed was sterilized by soaking in 70% ethanol solution for 5 minutes, followed by 5% sodium hypochlorite solution for 10 minutes. The seeds were then washed three times with sterile water. The test compounds were tested in germination assay at five concentrations (0.16, 0.64, 2.5, 10, and 40 μM) with (S)-ABA (0.16, 0.64 and 2.5 μM) as a control in 6-well plates. DMSO stock solutions of (S)-ABA and the derivatives at 1,000 fold of the test concentrations were prepared. The stock solutions (5 μL) of (S)-ABA and the derivatives were added to the wells in the assay plate with 0.8% agar solutions of ½ Murashige and Skoog media. Sixteen sterile seeds were placed on the solid agar medium at an appropriate spacing. The assay plates were sealed with surgical tape and wrapped in aluminum foil, and the seeds were vernalized at 4° C. for 2 days. The assay plates were incubated in a growth chamber at 22.5° C. under daily light cycles of 16 hours (30 μmol/m^2·sec) for 4 days after the vernalization. The germination inhibition potency of the derivatives was scored and compared with that of (S)-ABA. The results are summarized in Table 2 “Table 2: Arabidopsis seed germination inhibition activity of (±)-ABA derivatives.”

The next experiment has as its system rice seedling. The conditions noted are these: according to Ueno, et al.; cited from earlier work.
The target of a further experiment is T1, (S)-ABA 8′-hydroxylase (Arabidopsis thaliana, UniProt Q9FH76).
T1 sequence (Q9FH76 1-463): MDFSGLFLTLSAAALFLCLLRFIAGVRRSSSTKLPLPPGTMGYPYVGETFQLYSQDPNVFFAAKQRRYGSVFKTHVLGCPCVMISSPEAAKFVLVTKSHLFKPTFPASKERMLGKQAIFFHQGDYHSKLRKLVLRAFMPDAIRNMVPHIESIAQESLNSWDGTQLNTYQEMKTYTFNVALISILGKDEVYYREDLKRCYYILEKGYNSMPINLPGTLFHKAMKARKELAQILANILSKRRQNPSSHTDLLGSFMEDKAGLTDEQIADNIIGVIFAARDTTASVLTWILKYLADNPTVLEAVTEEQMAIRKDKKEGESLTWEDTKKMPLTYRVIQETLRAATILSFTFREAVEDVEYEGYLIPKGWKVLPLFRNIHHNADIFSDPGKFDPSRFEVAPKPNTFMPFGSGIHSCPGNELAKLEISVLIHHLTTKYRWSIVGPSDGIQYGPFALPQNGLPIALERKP
The conditions noted are these: according to Ueno, et al.; cited from earlier work.

Experiment [2] relates to Arabidopsis thaliana seed. Briefly: Seed germination assay for testing Examples 29-46. The experiment is classed as in vivo. The protocol:
as §1

The test system of experiment [3] is Arabidopsis thaliana seed. Briefly: Seed germination assay for testing Examples 29-46. The experiment is classed as in vivo. Conditions: 0.16-40 μM in 6-well plates, 4 days after vernalization, compared with (S)-ABA. Also noted: key: ++++: The 3′-substituted-derivatives were scored by potency relative to ABA.; (S)-ABA potency = +++.; ++: The 3′-substituted-derivatives were scored by potency relative to ABA.; +: The 3′-substituted-derivatives were scored by potency relative to ABA.; −− = no effect. The protocol: as §1

Data on 8 compounds can be found in US9781930B2, “3′-substituted-abscisic acid derivatives” (Valent BioSciences Corporation, priority 2014, dated 2017).

With `CCCCCCC1=C(C)C(O)(/C=C/C(C)=C\C(=O)O)C(C)(C)CC1=O` (racemic) [Example 37, (2Z,4E)-5-(3-hexyl-1-hydroxy-2,6,6-trimethyl-4-oxocyclohex-2-en-1-yl)-3-methylpenta-2,4-dienoic acid], in experiment [1], the “Arabidopsis seed germination inhibition potency” value is reported as “−−”.
On to `CC1=C(C)C(O)(/C=C/C(C)=C\C(=O)O)C(C)(C)CC1=O` (racemic) [(±)-3′-methyl-ABA], for which the “activity in rice seedling elongation assay compared to (S)-ABA” value with rice seedling was “equal activity to (S)-ABA”. On (S)-ABA 8′-hydroxylase, the “activity in (S)-ABA 8′-hydroxylase inhibition assay compared to (S)-ABA” value is “lower activity than (S)-ABA”.
As for `CC1=C(C2(C)CC2)C(=O)CC(C)(C)C1(O)/C=C/C(C)=C\C(=O)O` (racemic) [Example 36, (2Z,4E)-5-(1-hydroxy-2,6,6-trimethyl-3-(1-methylcyclopropyl)-4-oxocyclohex-2-en-1-yl)-3-methylpenta-2,4-dienoic acid], the “Arabidopsis seed germination inhibition potency” value in experiment [1] is “−−”.
Consider `CC1=C(CC(C)C)C(=O)CC(C)(C)C1(O)/C=C/C(C)=C\C(=O)O` (racemic) [Example 34, (2Z,4E)-5-(1-hydroxy-3-isobutyl-2,6,6-trimethyl-4-oxocyclohex-2-en-1-yl)-3-methylpenta-2,4-dienoic acid], for which, in experiment [1], the “Arabidopsis seed germination inhibition potency” value is on record as “−−”.
For `CC1=C(C2CCCC2)C(=O)CC(C)(C)C1(O)/C=C/C(C)=C\C(=O)O` (racemic) [Example 42, (2Z,4E)-5-(3-cyclopentyl-1-hydroxy-2,6,6-trimethyl-4-oxocyclohex-2-en-1-yl)-3-methylpenta-2,4-dienoic acid], in experiment [1], the “Arabidopsis seed germination inhibition potency” value was “−−”.
On the same count and under the same terms, in the case of `CC1=C(C(C)(C)C)C(=O)CC(C)(C)C1(O)/C=C/C(C)=C\C(=O)O` (racemic) [Example 35, (2Z,4E)-5-(3-(tert-butyl)-1-hydroxy-2,6,6-trimethyl-4-oxocyclohex-2-en-1-yl)-3-methylpenta-2,4-dienoic acid] it was “−−”; in that of `CC1=C(c2ccccc2)C(=O)CC(C)(C)C1(O)/C=C/C(C)=C\C(=O)O` (racemic) [Example 46, (2Z,4E)-5-(3-hydroxy-2,4,4-trimethyl-6-oxo-3,4,5,6-tetrahydro-[1,1′-biphenyl]-3-yl)-3-methylpenta-2,4-dienoic acid], “−−”.
For the compound `CCCC1=C(C)C(O)(/C=C/C(C)=C\C(=O)O)C(C)(C)CC1=O` (racemic) [Example 30, (2Z,4E)-5-(1-hydroxy-2,6,6-trimethyl-4-oxo-3-propylcyclohex-2-en-1-yl)-3-methylpenta-2,4-dienoic acid], the “germination inhibition activity compared to (S)-ABA (in words)” value in experiment [2] was “the same level of potency as (S)-ABA”. Besides, in experiment [3], the “Arabidopsis seed germination inhibition potency” value is given as “+++”.
